Data set [1] deals with Rosa hybrida (pot rose cultivar) explants. Put plainly: In vitro and post vitro shoot multiplication and rooting of rose. Conditions: for Root number per plant / Total root length per plant: Ex vitro, four weeks of acclimatising; for Flower number per explant / Number of new shoots per explant / Root number per explant / Total root length per explant: In vitro, 10 μM, 8 weeks. Type of data set: in vivo. The procedure: The aim of this experiment was to test whether the new compounds are of practical use in tissue culture practice. The multiplication rate was investigated and the post vitro effects on rooting were examined. Rosa hybrida (pot rose cultivar) was cultured in 350 ml vessels with a screw on polycarbonate lid. Each culture vessel contained 100 ml autoclaved medium (120° C., 20 min). The cultures were maintained at 23±2° C. under a 16 h photoperiod at 40 μM m^−2 s^−1 PAR. The basal medium (BMR) contained Murashige and Skoog (1962) macroelements, microelements and vitamins, 95 μM NaFeEDTA, 555 μM myo-inositol, 111 mM sucrose, 1.332 mM glycine, 684 μM L-glutamine and 7 g/l agar. This medium was supplemented with 10 μM BA, mT, oMeOBAP or mMeOBAP (compound no. 14 and 15, respectively). The control medium didn't contain any cytokinin. After a culture period of 8 weeks, the number of induced shoots per explant was determined, as well as root number/explant and total root length/explant. The roots were removed and the explants (shoot clusters) were planted in unfertilised peat. After four weeks of acclimatising in a fog unit, root number and root length was determined.

Data set [2] concerns Rosa hybrida 'Pailin' explants. Put plainly: Early shoot senescence of tissue cultured roses. Type of data set: in vivo. The following applies: for relative number of dead plants in relation to culture time: 10 μM in medium. As to the method:
Rosa hybrida ‘Pailin’ (a cut rose) was cultured in 350 ml vessels with a screw on polycarbonate lid. Each culture vessel contained 100 ml autoclaved medium (120° C., 20 min). The cultures were maintained at 23±2° C. under a 16 h photoperiod at 40 μM m^−2 s^−1 PAR. The basal medium (BMR) contained Murashige and Skoog (1962) macroelements, microelements and vitamins, 36.7 mg/l NaFeEDTA, 50 mg/l NaFeEDDHA, 100 mg/l […] myo-inositol, 30 g/l sucrose, 100 mg/l glycine, 50 mg/l calcium pantothenate, 100 mg/l L-glutamine and 7 g/l agar-agar. This medium was supplemented with 10 μM BA, mT and mMeOBAP. The last 2 cytokinins were filter sterilised and added after autoclaving the medium in the vessels. The control medium didn't contain any cytokinin. After a culture period of 6 weeks, scoring senescence symptoms was started.

Data set [3] concerns human adult skin fibroblasts. Put plainly: Short-term growth of human skin fibroblasts (cell counts, Giemsa). Type of data set: cell-based. Conditions: for Cell growth versus untreated: 40 μM and 80 μM; for Cell proliferation (summary): all concentrations (40, 80, 200 and 500 μM); for appearance of dermal cells (summary): all doses 40, 80, 200 and 500 μM; for Cellular growth at higher concentrations: para 200 to 500 μM after 11 days, ortho 200 and 400 μM after 7 days, meta 400 μM. As to the method: All experiments were performed on early and mid passage cultures (about 20 to 40% lifespan completed) of normal human adult skin fibroblast line; designated ASF-2 & Senetek cell line (about 10-90% lifespan completed); designated as SF20. In order to check the effects of test compounds on senescent cells, late passage cells with more than 95% lifespan completed were used. ASF-2 and SF20 cell lines were established from a mammary skin biopsy obtained from a young, non-smoking and healthy […] at the time of breast reduction operation. Normal culture conditions of medium (DMEM) containing antibiotics, 10% foetal calf serum, and incubation at 37° C. with 95% humidity were used. The effects of the test chemicals were determined in the following conditions:
Short-term growth experiments were performed using 24-well tissue culture plates (growth area 1.9 cm^2). Freshly prepared cell suspensions from mass cultures of ASF-2 cells maintained in our labs were used. About 10,000 cells were seeded into 6 sets of 24-well plates. The cells were allowed to attach and stabilize for 24 hr in normal culture medium to achieve various final concentrations (range 40 to 500 μM). Culture medium was changed with the addition of test chemicals twice a week. The numbers of cells were counted after different days of treatment in 2 wells from each concentration of the test chemical, by following the normal method of cell trypsinization and counting using a Coultercounter. The third well in each category was fixed by cold methanol and stained with Giemsa stain for permanent record and for photography. The experiment was carried on for until the cultures became fully confluent and no further growth was possible.

The test system of data set [4] is lysosomes of fibroblast cells. Put plainly: Lysosomal activity, neutral red uptake. Type of data set: cell-based, human. Conditions: pre-treated fibroblasts. As to the method: Neutral Red is preferentially taken up into the lysosomes of the cell. Fibroblast cells are maintained in culture and exposed to test compounds over a range of concentrations. The cultures are visually examined after 72 hours, and the number of viable cells and/or the total cell protein content determined, after 72 hours exposure, by the Neutral Red Uptake method. Advantage of Neutral Red assay is that it detects only viable cells. Any chemical having a localized effect upon the lysosomes will, therefore, result in an artificially low (or possibly high) reflection of cell viability and cell number. This factor does, however, make the system useful to detect those compounds which selectively affect the lysosomes, especially when it is used in conjunction with other tests capable of determining cell number.
The NR assay has been applied to evaluation and ranking the cytotoxicity of a spectrum of compounds. Individual wells of a 96-well tissue culture microtiter plate were inoculated with 0.2 ml of the appropriate media containing cells (usually 3×10^3 cells). After 1 to 2 days of incubation, the media were removed and replaced with unamended (control) medium or with medium amended with varied concentrations of the compound to be tested. After 3 days of exposure to the compound, media were removed and replaced with media containing 0.001% NR. The assay plate was then returned to the incubator for another 3 h to allow for uptake of the supravital dye into the lysosomes of viable cells. Thereafter, the media were removed and the cells were rapidly washed with 0.5% formaldehyde-1% CaCl2 followed by 0.2 ml of a solution of 1% acetic acid-50% ethanol to extract the dye from the cells. After 10 min at room temperature and a brief but rapid agitation on a microtiter plate shaker, the plates were transferred to a microplate spectrophotometer equipped with a 540-nm filter to measure the absorbance of the extracted dye.
The toxicities of the various compounds were compared with those of the control cultures by computing the data obtained.

Data set [5] concerns senescent human skin fibroblasts. Put plainly: Numbers of surviving senescent cells (Coulter counter). Type of data set: cell-based. The following applies: 7 to 14 days of treatment. As to the method: Equal numbers of senescent cells were seeded in separate flasks and were treated with different concentrations of para-topolin. Cell numbers were determined by using a Coulter counter after trpsinization and resuspension of cells after 7 and 14 days of treatment.
Equal numbers of senescent cells were seeded in separate flasks and were treated with different concentrations of ortho-topolin. Cell numbers were determined by using a Coulter counter after trypsinisation and resuspension of cells, after 7 and 14 days of treatment.

The source of these data is US8552013B2, “Heterocyclic compounds based on N6-substituted adenine, methods of their preparation, their use for preparation of drugs, cosmetic preparations and growth regulators, pharmaceutical preparations, cosmetic preparations and growth regulators containing these compounds” (USTAV Experimentalni Botaniky Akademie Ved Ceske Republiky, priority 2001, dated 2013).

As to `COc1cccc(CNc2ncnc3nc[nH]c23)c1` [6-(3-methoxybenzylamino)purine], in data set [1], the “Root number per plant” value is 1.7, the “Total root length per plant” value turned out to be 4.1 cm, the “Flower number per explant” value was 0.03 and the “Number of new shoots per explant” value came out at 4.3. In addition, in data set [1], the “Root number per explant” value was determined as 0.0 and the “Total root length per explant” value amounted to 0.0 cm. The “relative number of dead plants in relation to culture time” value in data set [2] is listed as “the situation improved”. Further, in data set [2] (10 μM, after 121 days), the plants alive entry is “almost all plants were still alive”.
Take `Oc1cccc(CNc2ncnc3nc[nH]c23)c1` [meta-topolin, 6-(3-hydroxybenzylamino)purine]: in data set [1], the “Root number per plant” value turned out to be 1.4, the “Total root length per plant” value amounted to 3.8 cm, the “Flower number per explant” value is given as 0.16 and the “Number of new shoots per explant” value was determined as 2.1. In data set [1], the “Root number per explant” value was determined as 0.0 and the “Total root length per explant” value turned out to be 0.0 cm. In addition, in data set [2], the “relative number of dead plants in relation to culture time” value is given as “the situation improved”. In addition, in data set [3], the “Cell growth versus untreated” value is recorded as “almost similar”, the “Cell proliferation (summary)” value is on record as “declined to a significant extent”, the “appearance of dermal cells (summary)” value is on record as “morbid in appearance” and the “Cellular growth at higher concentrations” value is on record as “almost no growth”. In addition, the rate of growth entry in data set [3] (200 μM) is “slowed down”. In addition, the “Cleaning up of cytoplasmic debris (macro-molecular turn-over rate), summary” value in data set [4] is “No such effective removal was observed”. Besides, in data set [5], the “numbers of surviving senescent cells” value is “reduces the number of surviving senescent cells in a dose dependent manner”.
Consider `Oc1ccccc1CNc1ncnc2nc[nH]c12` [ortho-topolin, 6-(2-hydroxybenzylamino)purine], for which, in data set [3], the “Cell growth versus untreated” value was “almost similar”, the “Cell proliferation (summary)” value is listed as “declined to a significant extent”, the “appearance of dermal cells (summary)” value is recorded as “morbid in appearance” and the “Cellular growth at higher concentrations” value is given as “almost a total inhibition”. In data set [4], the “Cleaning up of cytoplasmic debris (macro-molecular turn-over rate), summary” value was “No such effective removal was observed”. Besides, in data set [5], the “numbers of surviving senescent cells” value is listed as “reduces the number of surviving senescent cells significantly”.
